Test results reported in patent publication US8133903B2, “Methods of use of inhibitors of phosphodiesterases and modulators of nitric oxide, reactive oxygen species, and metalloproteinases in the treatment of peyronie's disease, arteriosclerosis and other fibrotic diseases” (Los Angeles Biomedical Research Institute at Harbor—UCLA …, priority 2003, dated 2012).

Tests used:
[1] = test system: fibroblast cultures from human PD plaque; assay: Collagen I/III and ASMA immunocytochemistry with QIA in fibroblast cultures from human PD plaque; type: cell-based; conditions: for number of ASMA positive cells (myofibroblasts): control 37%; for synthesis of collagen III: PDE inhibitors
Text: (§1) Primary human cell cultures: Human fibroblast primary cultures were obtained from fragments of PD plaque or TA essentially according to Smith and Liu (2002), and their purity was established by immunohistochemistry, as detailed below. New primary cultures were obtained from fragments of PD plaque or TA that were washed in Hanks solution, minced in a fibroblast growth medium (FGM) (BioWhittaker Inc., Walkersville, Md.) and 20% fetal bovine serum (FBS), and plated onto a 25 cm^2 culture flask per specimen (Vernet et al., 2002). Fragments were left undisturbed until attachment for about 1 week. Once the monolayer started to develop, the fragment was removed. Medium with 10% FBS was changed once a week and when cells achieved approximately 80% confluence (3-4 weeks) they were trypsinized and split onto 10 cm plates. Cells were allowed to grow again to 80% confluence, with medium changed twice a week. The cells collected from this passage were considered as passage 1. Successive passages were performed at 1/3 split ratio, and studies were carried out on cells from passages 3 onwards. Studies were performed with PD cells from the 4th to the 10th passages. Cells were incubated on: a) 75 cm^2 flasks for RNA isolation; b) 6-well plates for protein isolation; and c) 8-well removable chambers for cytochemistry and immunocytochemistry. Treatments with different additions were initiated 24 hours after plating and continued for different periods.
In the case of cell cultures, at completion of incubations, slides were removed from the chambers and cells were fixed for immunodetection for 20 min in 4% buffered formalin at room temperature for α-smooth muscle actin (ASMA) (as a myofibroblast marker), vimentin (as a general fibroblast marker), and in certain cases for PDE5 and PDE4, or in ethanol at −20 C for collagen I and III (Vernet et al., 2002). The cells were quenched, blocked with normal goat serum and incubated with monoclonal primary antibodies for ASMA and vimentin (Sigma Immunohistology Kits, Sigma Chemical Co, St. Louis, Mo.), collagen I, and collagen III (1:40) (Chemicon International, Temecula, Calif.), overnight at 4° C. (Vernet et al., 2002; Ferrini et al., 2002). Processing was according with the manufacturer's instructions for ASMA, vimentin and collagen, consisting in the respective monoclonal antibodies and an anti-mouse biotinylated secondary antibody, followed by avidin-biotinylated HRP and the 3-amino-9-ethylcarbazol (AEC) chromogen. For PDE5A, the antibodies were as described above. Negative controls omitted the first antibodies or were replaced by IgG isotype at the same concentration of the first antibodies. Counterstaining was done with Mayer's hematoxylin. All the slides were mounted with Aqua Mount (Lerner, Pittsburgh, Pa.). For PDE4, the anti PDE4A and PDE4B affinity purified IgGs used for western blot was employed, and in addition the anti-PDE4A4 and anti-PDE4D (detecting variants 1-5) from the same source (FabGennix Inc.) were used.
(§2) The quantitation of the staining obtained by either histochemical or immunohisto/cytochemical techniques was performed by computerized densitometry using the ImagePro 4.01 program (Media Cybernetics, Silver Spring, Md.), coupled to an Olympus BHS microscope equipped with a Spot RT digital camera or VCC video camera (Wang et al., 2001; Ferrini et al., 2001a, 2001b; Davila et al., 2003b).

[2] = test system: fibroblast cultures from human PD plaque; assay: cGMP and cAMP enzyme immunoassays in fibroblast cultures from human PD plaque; type: cell-based; conditions: for cGMP levels as % of control levels: 3-day incubation
Text: as §1
The presence of PDEs in the PD fibroblasts in culture was confirmed by the ability of increasing concentrations of sildenafil and pentoxifylline to raise the basal cGMP and cAMP levels in triplicate wells, either in the absence or the presence of the NO donor, SNAP (S-nitroso-N-acetyl penicillamine) (Alexis Biochemicals, San Diego, Calif.) added daily at 100 μM, as measured by cGMP and cAMP EIA (enzyme immuno absorption) kits (Cayman Chemical, Ann Arbor, Mich.). Experiments were performed in duplicate. Values were expressed as pmoles cGMP or cAMP/mg protein. To normalize for differences between experiments, the changes in cGMP and cAMP levels exerted by sildenafil and pentoxifylline were expressed as % of their respective control values in the absence of the PDE inhibitors.

[3] = test system: fibroblast cultures from human PD plaque; assay: TUNEL apoptosis in fibroblast cultures from human PD plaque
Experimental: Cells incubated in 8-well chamber slides were allowed to grow to 50-60% confluence. At this point, cells received in duplicate sildenafil, pentoxifylline, or 8-Br cGMP at the concentrations indicated, and were allowed to propagate for 3 days without changing medium. In certain cases SNAP was added and replaced daily after changing the medium (Vernet et al., 2002). All studies were done in duplicate or triplicate.
For cell cultures, the cells were fixed in 4% formaldehyde for 30 min on ice, and post-fixed with ethanol-acetic acid 2/1 for 5 min at −20 C. Then the above procedure was applied, except that the proteinase K was omitted.
The number of positive cells was counted in a computerized grid against the total number of cells determined by counterstaining, and results were expressed as a percentage of positive cells over total cells. […] The apoptotic index (rate of programmed cell death) was calculated as the percentage of apoptotic cells within the total number of cells in a given area (non-apoptotic nuclei plus apoptotic cells). In all cases, five non-overlapping fields were screened per tissue section or per well. Three sections per tissue specimen from groups of five animals, or two wells per experimental point in cell incubations, were then used to calculate the means+/−SEM.

[4] = test system: TGF-β1-induced fibrotic plaque in the rat tunica albuginea; assay: TGF-β1 rat model of Peyronie's disease, plaque and collagen deposition by Masson staining with QIA; type: in vivo; conditions: for plaque size (Masson staining, collagen fiber/cell-lacunae area ratio, width of the tunica): oral in drinking water, 100 mg/l, 45 days following TGF-β1 injection
Experimental: (§3) TGF-β1 rat model. Male Fisher 344 rats, 9-11 month old purchased from the NIH/NIA colony (Harlan Sprague-Dawley, Inc., San Diego, Calif.) and maintained under controlled temperature and lighting, were anesthetized and injected in the penile TA at the middle of the penis with either vehicle only (saline, group 1) or 0.5 μg recombinant human TGF-β1 (Biotech Diagnostic, Laguna Niguel, Calif., groups 2-5) as disclosed (Ferrini et al., 2002; Vernet et al., 2002). After the injection, groups 1 and 2 were given drinking water while the other groups received water with L-arginine (2.25 g/kg/day, group 3) (Moody et al., 1997), or sildenafil (10 mg/kg/day, group 4) or pentoxifylline (10 mg/kg/day, group 5). Forty-five days later, or as indicated, animals were sacrificed and perfused through the left ventricle with saline followed by 4% formalin ((Ferrini et al., 2002; Vernet et al., 2002). After the penises were excised, the penile skin was denuded by removing the glans and adhering non-crural tissue. The penile shaft was separated from the crura and 2-3 mm transverse slices were cut around the site of the saline or TGF-β1 injection. All tissues were post-fixed overnight in 4% formalin, washed in PBS and stored at 4° C.
In the case of tissue sections, the determinations of the collagen/smooth muscle ratio were carried out with Masson trichrome (Ferrini et al., 2002; Davila et al., 2003b) on adjacent 5 μm paraffin-embedded cross-sections from the human normal tunical or plaque tissues, or from a 2 mm area around the site of injection in the rat saline- and TGF-β1-injected shaft tissues. Other distal sections were obtained along the rat penile shaft.
as §2

[5] = test system: TGF-β1-induced fibrotic plaque in the rat tunica albuginea; assay: TUNEL apoptosis in the TGF-β1-induced plaque of the rat tunica albuginea; type: in vivo; conditions: for apoptotic index in the plaque: oral in drinking water, 100 mg/l, 45 days following TGF-β1 injection
Experimental: as §3

[6] = test system: normal human TA and PD fibroblast cultures; assay: Fibroblast numbers in normal human TA and PD cultures; type: cell-based; conditions: both normal human TA and PD cultures
Text: as §1, with “Treatments with different additions were initiated 24 hours after plating and continued for different periods.” left out

[7] = cited from earlier work
[8] = target: PDE5A3 (Homo sapiens, UniProt O76074); conditions: cited from earlier work
[9] = in the presence of SNAP (100 uM), increasing concentrations

For Nc1nc2c(nc(Br)n2[C@@H]2O[C@@H]3COP(=O)(O)O[C@H]3[C@H]2O)c(=O)[nH]1 [8 Br-cGMP], the “reduction in the number of cells expressing collagen I” value ([1]; 10 μM, 3 days) was 30%, the “ASMA expression per cell (myofibroblast differentiation)” value ([1]; 400 μM, 3 days) was “decreased significantly” and the “number of cells expressing collagen I” value ([1]; 400 μM, 3 days, compared with 10 μM) was “did not induce further decrease”. For the same compound, the “collagen I expression per cell” value ([1]; 3 days) was “reduced only moderately and non-significantly”, the “relative number of ASMA positive cells” value ([1]; 3 days) was “no effect” and the “collagen I production by the cells” value ([1]; levels as low as 10 uM) was “inhibited collagen I production”. For the same compound, the “intracellular cGMP levels” value ([2]; 100 uM, control 0.02) was 1.83 nmoles/10^6 cells, the “increase of cGMP levels in cell extracts” value ([2]; 8 Br-cGMP at 10 uM) was 6.4 fold and the “increase of cGMP levels in cell extracts” value ([2]; 8 Br-cGMP at 100 μM) was 38.7 fold. The “apoptosis by TUNEL” value ([3]; 100 uM, control 7.5+/−0.4) was 20.5+/−1.1 cells per field and the “increase of apoptosis (apoptotic index, TUNEL, image analysis)” value ([3]; 3 days, did not achieve statistical significance) was 2.3 fold.

In the case of N=C(N)NCCC[C@H](N)C(=O)O [L-arginine], the “size of the TGF-β1-induced plaque (Masson staining, collagen fiber/cell-lacunar area ratio)” value ([4]; oral L-arginine in drinking water (2.25%), 45 days after TGF-β1 injection) is reported as “considerable decrease in the size”, the “apoptotic index (apoptotic cells/total number of cells) in the plaque” value ([5]; oral L-arginine (2.25%)) is reported as “no significant difference” and the “number of apoptotic cells per field in the PD-like plaque” value ([5]; oral L-arginine (2.25%), vs control animals) is reported as “increase”.

In the case of CC(=O)N[C@H](C(=O)O)C(C)(C)SN=O [SNAP, S-Nitroso-N-acetyl penicillamine], the “collagen I synthesis in all the cells” value ([1]; NO donor in culture) is reported as “inhibitory action”, the myofibroblast differentiation ([1]; NO donor in culture) is reported as “inhibitory action” and the “increase of cGMP levels in cell extracts” value ([2]; 100 uM SNAP, 3 days, daily replacement, basal 5.0+/−0.4 pmol/mg protein) is reported as 5.0 fold. The cAMP levels ([2]; after 3 days with SNAP, basal 42.6+/−12.7 pmol/mg protein) was “did not vary significantly” and the fibroblast numbers [6] was “reduced fibroblast numbers”.

For CC(=O)CCCCn1c(=O)c2c(ncn2C)n(C)c1=O [pentoxifylline], the “plaque size (Masson staining, collagen fiber/cell-lacunae area ratio, width of the tunica)” value [4] was “considerable reduction in plaque size”, the “number of ASMA positive cells (myofibroblasts)” value ([1]; 3 days) was “about 24%” and the “synthesis of collagen III” value ([1]; 3 days) was “did not decrease, but even increased”. The “apoptotic index in the plaque” value [5] was “intensification of the apoptotic index, especially for pentoxifylline”, the “cGMP levels as % of control levels” value [2, 9] was “did not increase significantly” and the “cAMP levels as % of control levels” value ([2]; in the presence of SNAP (100 uM), increasing concentrations, 3 days) was “very effective in increasing cAMP levels”.

For CCCc1nn(C)c2c(=O)[nH]c(-c3cc(S(=O)(=O)N4CCN(C)CC4)ccc3OCC)nc12 [sildenafil], the “plaque size (Masson staining, collagen fiber/cell-lacunae area ratio, width of the tunica)” value [4] is listed as “considerable reduction in plaque size”, the half-life [7] is listed as 4 to 6 h and the “number of ASMA positive cells (myofibroblasts)” value ([1]; 3 days) is listed as “about 24%”. For the same compound, the “synthesis of collagen III” value ([1]; 3 days) was “did not decrease, but even increased”, the “apoptotic index in the plaque” value [5] was “intensification of the apoptotic index” and the cGMP levels ([2]; in the absence of SNAP) was “did not significantly stimulate”. The “cGMP levels as % of control levels” value [2, 9] was “increased dose-dependently” and the “sensitivity of PDE5A3 to sildenafil compared with PDE5A1” value [8] was “twice as sensitive”.
